Laboratory results taken from patent publication US10406140B2, “5-substituted benzimidazole and 5-substituted azabenzimidazole derivative both having AMPK activation effect” (Shionogi & Co., Ltd., priority 2016, dated 2019).

Target: T1, Human AMPK α2ß2γ1 (Homo sapiens, UniProt O43741+P54646)
T1 construct: The full length cDNAs of human AMPK ß2 (NM_005399.3) and human AMPK α2 (NM_006252.3); The full length cDNAs of human AMPK ß2 (NM_005399.3); 6xHis (N); made in house; host or cells: Escherichia coli BL21 CodonPlus (DE3)-RIL
T1 sequence (P54646 whole entry): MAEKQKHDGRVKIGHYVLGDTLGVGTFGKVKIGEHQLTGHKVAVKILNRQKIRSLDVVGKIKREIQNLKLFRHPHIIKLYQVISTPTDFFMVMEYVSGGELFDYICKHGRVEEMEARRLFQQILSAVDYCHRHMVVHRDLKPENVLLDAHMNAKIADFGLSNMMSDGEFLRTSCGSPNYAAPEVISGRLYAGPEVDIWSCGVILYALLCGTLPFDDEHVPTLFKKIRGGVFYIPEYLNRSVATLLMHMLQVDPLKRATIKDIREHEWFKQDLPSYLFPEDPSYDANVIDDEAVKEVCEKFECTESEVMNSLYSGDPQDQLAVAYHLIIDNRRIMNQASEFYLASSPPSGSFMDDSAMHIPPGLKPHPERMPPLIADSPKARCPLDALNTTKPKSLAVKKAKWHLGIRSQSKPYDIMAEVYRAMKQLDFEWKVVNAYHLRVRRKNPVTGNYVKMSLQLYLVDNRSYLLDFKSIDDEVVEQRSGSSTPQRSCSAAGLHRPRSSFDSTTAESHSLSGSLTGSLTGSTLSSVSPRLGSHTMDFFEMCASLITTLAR
T1 sequence (O43741 whole entry): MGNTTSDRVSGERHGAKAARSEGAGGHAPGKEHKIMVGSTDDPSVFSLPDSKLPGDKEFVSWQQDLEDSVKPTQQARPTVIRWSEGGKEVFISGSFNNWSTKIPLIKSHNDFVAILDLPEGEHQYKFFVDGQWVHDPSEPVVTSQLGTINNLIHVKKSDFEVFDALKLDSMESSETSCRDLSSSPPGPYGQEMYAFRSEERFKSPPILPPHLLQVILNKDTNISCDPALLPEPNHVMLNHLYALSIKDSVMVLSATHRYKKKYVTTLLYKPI
T1 sequence (P54619 whole entry partner): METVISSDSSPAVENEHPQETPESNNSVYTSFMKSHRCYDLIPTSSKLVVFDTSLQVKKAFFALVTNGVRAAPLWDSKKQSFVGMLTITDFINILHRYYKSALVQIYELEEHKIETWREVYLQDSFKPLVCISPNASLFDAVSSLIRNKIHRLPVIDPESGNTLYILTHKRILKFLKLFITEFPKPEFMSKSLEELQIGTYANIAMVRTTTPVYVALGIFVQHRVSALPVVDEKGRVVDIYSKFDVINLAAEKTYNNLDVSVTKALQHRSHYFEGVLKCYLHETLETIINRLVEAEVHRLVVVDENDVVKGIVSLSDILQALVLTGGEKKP
Assay: Test Example 2: activator evaluation on phosphorylated human AMPK α2ß2γ1 (mobility-shift assay, FL-Peptide 7)
Assay type: biochemical
Conditions: human AMPK α2ß2γ1 pre-phosphorylated with CaMKK2; for EC150 (compound concentration showing 150% relative to the control (100%)): 25° C., 2 hours, 1% DMSO; for Emax: control without compound = 100%, read-out: Emax (maximum rate of increase in activity within the measurement range)
Description: The full length cDNAs of human AMPK ß2 (NM_005399.3) and human AMPK α2 (NM_006252.3) were inserted into the MCS1 and MCS2 of the pETDuet-1 vector to prepare a human AMPK ß2 and human AMPK α2 (6× His tag at the 5′ terminus) expressing plasmid. The plasmid was cotransfected with an expression plasmid, in which the full length cDNA of human AMPK γ1 (NM_002733.3) had been inserted into pET28b(+), into BL21 CodonPlus (DE3)-RIL to obtain an expression strain. The expression strain was cultured in TB medium, followed by induction with 0.5 mM IPTG, and cultured at 25° C. for 3 hours and then harvested.
Preparation method of human CaMKK2 used to impart activity to AMPK An expression vector, in which the full length cDNA of human CAMKK ß (NM_172226.1) had been inserted into pGEX-6P-3, was transfected into BL21 Star (DE3). The expression strain was cultured in TB medium, followed by induction with 0.5 mM IPTG, and cultured at 25° C. for 3 hours and then harvested.
Thus, phosphorylation treatment was carried out as pretreatment.
Human AMPK α2ß2γ1 in an amount to give a conversion rate of approximately 10% by reaction for 2 hours, and CaMKK2 in an amount capable of sufficiently imparting activity to AMPK for one hour were mixed in a buffer solution consisting of a 50 mM HEPES-NaOH buffer solution (pH 7.0), 100 mM NaCl, 5 mM magnesium chloride, 0.1% bovine serum albumin, 0.2 mM sodium orthovanadate(V), 1 mM ethylene glycol-bis(2-aminoethyl ether)-N,N,N′,N′-tetraacetic acid (EGTA), 5 mM disodium ß-glycerophosphate, 1 mM dithiothreitol and 0.2 mM ATP, and the resulting liquid was left to stand at 25° C. for 1 to 1.5 hours to sufficiently phosphorylate AMPK.
The resulting liquid was left to stand for 10 minutes.
The resulting liquid was allowed to react at 25° C. for 2 hours, and 10 μl of 20 mM EDTA was added thereto to stop the reaction.
To detect phosphorylated fluorescent substrates, the reaction mixture was applied to a measuring device, LabChip EZ Reader II manufactured by Caliper Life Science, Inc., for detecting fluorescence by using differences in mobility due to differences in charge. The setting conditions for the device were pressure, −1.5 PSI; upstream voltage, −2250 V; downstream voltage, −400 V; post sample buffer sip time, 40 seconds; final delay, 120 seconds; and peak order, Product First.
A conversion rate was calculated from the peak heights of the obtained substrate and product. The conversion rate when not containing a compound was used as a control, and a concentration dependent curve was made by plotting the rate of increase in activity to the control at each concentration of a compound.

## CS(C)(=O)=Nc1ccc(-c2ccc(-c3nc4nc(O[C@@H]5CO[C@H](CO)C5(F)F)[nH]c4cc3F)cc2)cc1 [Compound (I-1-11)]
  EC150 (compound concentration showing 150% relative to the control (100%)): 1.1 nM
  Emax: 601%

## CS(C)(=O)=Nc1ccc(-c2ccc(-c3nc4nc(O[C@@H]5CO[C@H](CO)C5(F)F)[nH]c4cc3Cl)cc2)nc1 [Compound (I-2-4)]
  EC150 (compound concentration showing 150% relative to the control (100%)): 9.7 nM
  Emax: 493%

## CS(C)(=O)=Nc1ccc(-c2ccc(-c3nc4nc(O[C@@H]5CO[C@H](CO)C5(F)F)[nH]c4cc3F)c(F)c2)cc1 [Compound (I-2-8)]
  EC150 (compound concentration showing 150% relative to the control (100%)): 0.75 nM
  Emax: 619%

## CS(C)(=O)=Nc1ccc(-c2ccc(-c3nc4nc(O[C@@H]5CO[C@H](CO)C5(F)F)[nH]c4cc3Cl)cc2)cc1 [Compound (I-1-7)]
  EC150 (compound concentration showing 150% relative to the control (100%)): 2.1 nM
  Emax: 504%

## CS(C)(=O)=NC1CC=C(c2ccc(-c3nc4nc(O[C@@H]5CO[C@H](CO)C5(F)F)[nH]c4cc3Cl)cc2)CC1 (some centres unmarked) [Compound (I-2-9)]
  EC150 (compound concentration showing 150% relative to the control (100%)): 1.3 nM
  Emax: 652%

## CN=S(C)(=N)c1ccc(-c2ccc(-c3nc4nc(O[C@@H]5CO[C@H](CO)C5(F)F)[nH]c4cc3F)cc2)cc1 (some centres unmarked) [Compound (I-2-11)]
  EC150 (compound concentration showing 150% relative to the control (100%)): 1.2 nM
  Emax: 649%

## CS(C)(=O)=Nc1ccc(-c2ccc(-c3nc4nc(O[C@@H]5CO[C@H](CO)[C@@H]5F)[nH]c4cc3Cl)cc2)cc1 [Compound (I-1-6)]
  EC150 (compound concentration showing 150% relative to the control (100%)): 7.4 nM
  Emax: 514%

## COC(=O)NC1CC=C(c2ccc(-c3nc4nc(O[C@@H]5CO[C@H](CO)C5(F)F)[nH]c4cc3Cl)cc2)CC1 (some centres unmarked) [Compound (I-1-9)]
  EC150 (compound concentration showing 150% relative to the control (100%)): 9.5 nM
  Emax: 389%

## CS(C)(=O)=NC1CC=C(c2ccc(-c3nc4nc(O[C@@H]5CO[C@H](CO)C5(F)F)[nH]c4cc3F)cc2)CC1 (some centres unmarked) [Compound (I-2-10)]
  EC150 (compound concentration showing 150% relative to the control (100%)): 2.1 nM
  Emax: 604%

## CS(C)(=O)=Nc1ccc(-c2ccc(-c3nc4nc(OCCO)[nH]c4cc3Cl)cc2)cc1 [Compound (I-1-3)]
  EC150 (compound concentration showing 150% relative to the control (100%)): 19 nM
  Emax: 235%

## CS(C)(=O)=Nc1ccc(-c2ccc(-c3nc4nc(O[C@@H]5CO[C@H](CO)[C@H]5F)[nH]c4cc3F)cc2)cc1 [Compound (I-1-10)]
  EC150 (compound concentration showing 150% relative to the control (100%)): 3.1 nM
  Emax: 399%

## CC(=O)NC(C)(C)c1ccc(Oc2nc3nc(-c4ccc(-c5ccc(N=S(C)(C)=O)cc5)cc4)c(Cl)cc3[nH]2)cc1 [Compound (I-1-4)]
  EC150 (compound concentration showing 150% relative to the control (100%)): 3.8 nM
  Emax: 364%

## CNS(C)(=O)=Nc1ccc(-c2ccc(-c3nc4nc(O[C@@H]5CO[C@H](CO)C5(F)F)[nH]c4cc3Cl)cc2)cc1 (some centres unmarked) [Compound (I-1-12)]
  EC150 (compound concentration showing 150% relative to the control (100%)): 2.4 nM
  Emax: 649%

## CCS(=O)(CC)=Nc1ccc(-c2ccc(-c3nc4nc(O[C@@H]5CO[C@H](CO)C5(F)F)[nH]c4cc3F)cc2)cc1 [Compound (I-2-12)]
  EC150 (compound concentration showing 150% relative to the control (100%)): 0.54 nM
  Emax: 595%

## CCS(=O)(CC)=Nc1ccc(-c2ccc(-c3nc4nc(O[C@@H]5CO[C@H](CO)C5(F)F)[nH]c4cc3Cl)cc2)cc1 [Compound (I-2-5)]
  EC150 (compound concentration showing 150% relative to the control (100%)): 6.2 nM
  Emax: 575%

## CS(C)(=O)=Nc1ccc(-c2ccc(-c3nc4nc(O[C@@H]5CO[C@H](CO)C5(F)F)[nH]c4cc3Cl)c(F)c2)cc1 [Compound (I-2-3)]
  EC150 (compound concentration showing 150% relative to the control (100%)): 4.2 nM
  Emax: 609%

## CS(C)(=O)=Nc1ccc(-c2ccc(-c3nc4nc(O[C@@H]5CO[C@H](CO)[C@H]5F)[nH]c4cc3Cl)cc2)cc1 [Compound (I-1-5)]
  EC150 (compound concentration showing 150% relative to the control (100%)): 1.4 nM
  Emax: 539%

## CS(C)(=O)=Nc1ccc(-c2ccc(-c3nc4nc(O[C@@H]5CO[C@H]6[C@@H]5OC[C@H]6O)[nH]c4cc3F)cc2)cc1 [Compound (I-1-2)]
  EC150 (compound concentration showing 150% relative to the control (100%)): 0.93 nM
  Emax: 556%

## COC(=O)NC1CC=C(c2ccc(-c3nc4nc(O[C@@H]5CO[C@H](CO)[C@H]5F)[nH]c4cc3Cl)cc2)CC1 (some centres unmarked) [Compound (I-1-8)]
  EC150 (compound concentration showing 150% relative to the control (100%)): 21 nM
  Emax: 412%

## CS(C)(=O)=Nc1ccc(-c2ccc(-c3nc4nc(O[C@@H]5CO[C@H](CO)C5(F)F)[nH]c4cc3F)cc2)nc1 [Compound (I-2-7)]
  EC150 (compound concentration showing 150% relative to the control (100%)): 3.1 nM
  Emax: 445%

## O=S1(=Nc2ccc(-c3ccc(-c4nc5nc(O[C@@H]6CO[C@H](CO)C6(F)F)[nH]c5cc4Cl)cc3)cc2)CCOCC1 [Compound (I-2-6)]
  EC150 (compound concentration showing 150% relative to the control (100%)): 3.0 nM
  Emax: 578%

## CN=S(C)(=N)c1ccc(-c2ccc(-c3nc4nc(O[C@@H]5CO[C@H](CO)C5(F)F)[nH]c4cc3Cl)cc2)cc1 (some centres unmarked) [Compound (I-2-2)]
  EC150 (compound concentration showing 150% relative to the control (100%)): 3.1 nM
  Emax: 604%
